{"source": "patent US20230076820A1", "about": "“Substituted Pyrazole Compounds and Methods of Using Them for Treatment of Hyperproliferative Diseases” (Bantam Pharmaceutical, LLC, priority 2016, published 2023)", "system": "HCT116 cells", "assay": "Total glutathione levels (GSH-Glo), HCT116", "format": "cell-based", "procedure": "Measurement of glutathione levels following treatment using three cell lines: BJAB, HCT116, and normal human lung fibroblasts (NHLF) were maintained in RPMI (Wisent), McCoy’s (Wisent) or FGM-2 (Lonza) medium, respectively. For total glutathione measurement, 5000 cells /well (BJAB or HCT116) or 10,000 cells/well (NHLF) were transferred to clear-bottom 96-well assay plates (Thermo Fisher) in a volume of 50 µL. Plates were incubated overnight at 37° C. in 5% CO2, in an unsealed plastic bag with damp paper. Test compound was serially diluted in medium plus 0.4% DMSO, and 50 µL/well of each dilution was transferred to the assay plate. Assay plates were incubated at 37° C. in 5% CO2 in unsealed plastic bag with damp paper for the indicated time. For total glutathione measurement, GSH-Glo™ reagent (Promega) was prepared by diluting provided Luciferin-NT (1:100), Glutathione S-Transferase (1:100), and DTT (1 mM final) to GSH-Glo™ Reaction buffer, and 100 µL was added to assay plates, followed by 30 min incubation at room temperature, and then 100 µL Luciferin Detection Reagent was added. […] Luminescence was measured using Tecan Infinite 200Pro.\nEffect on Glutathione levels: BJAB and HCT116 cells were maintained in RPMI medium (Wisent) or McCoy’s medium (Wisent), respectively. […] Total glutathione levels were determined according to the procedure described above."}
{"compound": "CC1=CC(=O)c2ccccc2C1=O", "note": "[menadione, Menadione]", "values": [{"measurement": "glutathione levels after treatment", "setting": "HCT116, FIG. 3", "result": "reduction in glutathione levels"}, {"measurement": "glutathione levels in the presence or absence of N-acetyl cysteine", "setting": "HCT116, with or without N-acetyl cysteine, FIG. 3", "result": "N-acetyl cysteine in the media prevents the reduction of glutathione"}]}
